Read-outs that look alike come from different tables or passages of the source. Strand notation (5' to 3'): a small letter for the sugar, then the base; units joined by * are phosphorothioate-linked, units joined directly phosphodiester-linked; [ ] holds rarer units or linkages, { } end groups; capitals alone tell only the bases. r = 2'-OH (RNA)
Legend:
[1] = target: T1, recombinant HIV-1 RT T215Y (Human immunodeficiency virus type 1 group M subtype B, UniProt P03366, T814Y); assay: RT assay: inhibition of RNA dependent DNA polymerisation (modified Lenti RT assay); type: biochemical; settings: read-out: IC50 of indicated inhibitor in RT assay
T1 construct: performed by recombinant HIV-1 RT:s with defined
Description: (§1) The flourimetric RT assay (Cavidi® Lenti RT activity kit), available from Cavidi Tech, Uppsala, Sweden, was used for the determination of RT activity. In short, poly(rA) covalently bound to the wells of a 96 well microtiter plate serves as template for the incorporation of 5-bromodeoxyuridine 5′-triphosphate (BrdUTP) during the reverse transcription step at 33° C. The amount of bromodeoxyuridine monophosphate (BrdUMP) incorporated into DNA is detected with an alkaline phosphatase (Ap) conjugated, anti-BrdU monoclonal antibody. An Ap substrate, 4-methylumbelliferyl phosphate, is finally used for fluorimetric product detection.
(§2) (i) Protocol for determination of inhibition of RNA dependent DNA polymerisation: The inhibition studies were performed in a modified Lenti RT assay. […] The enzyme reaction was initiated by addition of 100 μl aliquots of the enzyme/inhibitor mixture to each well of a microtiter plate containing 100 μl RT reaction mixture per well. The polymerase reaction was allowed to proceed for 3 hours at 33° C., whereupon the reaction was terminated by a wash of the plate. […] The amount of RT used was standardised to an activity corresponding to 90-130 pg (7-10×10^−16 mol) reference HIV-1 RT per well
(§3) The capacity of the indicated substances to inhibit the enzymes in a panel of recombinant HIV 1 subtype B RTs was studied according to “Protocol for determination of inhibition of RNA dependent DNA polymerisation” (protocol (i) above). The final nucleotide substrate (BrdUTP) concentration was 0.35 μM, and the primer (odT22) amount was 0.03 ng per well.

[2] = target: T2, recombinant HIV-1 RT L100I (Human immunodeficiency virus type 1 group M subtype B, UniProt P03366, L699I); assay: as above; type: biochemical; settings: read-out: IC50 of indicated inhibitor in RT assay
T2 construct: performed by recombinant HIV-1 RT:s with defined
Description: as §1, §2, §3

[3] = target: T3, recombinant HIV-1 RT K103N/E478Q (Human immunodeficiency virus type 1 group M subtype B, UniProt P03366, E1077Q/K702N); assay: as above; type: biochemical; settings: read-out: IC50 of indicated inhibitor in RT assay
T3 construct: performed by recombinant HIV-1 RT:s with defined
Description: as §1, §2, §3

[4] = test system: Mut1 (RNase H inactive mutant of HIV-1 RT); assay: Gel mobility shifts in native polyacrylamide gel electrophoresis (PAGE); type: binding; settings: native 20% PAGE; ammonium sulphate up to […]
Excerpt: In the following experiment, the terms “34-mer” and “35-mer” refer to SEQ ID NO:3 (produced in example A1 above) and SEQ ID NO:4 (produced in example A2 above), respectively. […] Natural RT molecules have an RNase H activity which normally cleaves RNA molecules. […] This mutant is produced according to the method given in Schatz, O., Cromme, F. V., Grüninger-Leitch, F. and Le Grice, S. F. J., Febs Letter. Vol.257, No.2 p.311-314. This RT-mutant is further on referred to as Mut1. The following experiments are carried out:
2. Gel mobility shifts in polyacrylamide gel electrophoresis (PAGE) experiments.
a) Native 20% PAGE gel is run at 4-5° C. Samples are incubated at 4° C. in 50 mM hepes buffer and 5 mM magnesium chloride and varying salt concentrations as indicated below.
Samples are incubated for 90 min at 4° C. prior to a further 10 min incubation at 4° C. with ammonium sulphate and/or KCl. Samples applied to lanes 4 and 5 have twice the amount of 34-mer used for the other samples.
b) Native 20% PAGE gel run at 4-5° C. Samples are incubated at 4° C. in 50 mM hepes buffer and 5 mM magnesium chloride, with varying concentrations of ammonium sulphate.
Native 20% PAGE gel is run at 4-5° C. Samples are incubated at 4° C. in 50 mM hepes buffer, 15 mM manganese sulphate, 1 mM EDTA and 0.25 mM EGTA.
Samples are incubated 10 min at room temperature prior to a 60 min incubation at 4° C. One μl of sample solution is applied per lane. Electrophoresis is conducted with up to 400 volts while cooling to approximately 4° C. After 0.209 kWh the gel is silver stained.

[5] = target: T3, recombinant HIV-1 RT K103N/E478Q; settings: binding 90 min at 33° C.
Description: (§4) (iii) Protocol for RT binding inhibition (BIC) assay: The study was performed in a modified DNA polymerase assay. The inhibitors were serially diluted in five steps, enzyme dilution was added and the enzyme/inhibitor mixtures were incubated for 30 minutes at 33° C. Aliquots of the enzyme/inhibitor mixture were transferred to each well of a microtiter plate containing either immobilised primer, or primer/template. The enzyme was allowed to bind to the immobilised polymer for 90 min at 33° C. The amount of RT used was standardised to an activity corresponding to 40-60 pg (3.3-5.0×10^−16 mol) reference HIV-1 RT per well. The plates were then washed to remove unbound enzyme whereupon the amount of bound enzyme was determined by addition of the appropriate reaction solution for polymerisation (i e a reaction solution devoid of primer for studies of primer binding and a reaction solution devoid of both primer and template for studies of binding to primed template). The polymerase reaction was allowed to proceed for 3 hours at 33° C., whereupon the reaction was terminated by a wash of the plate.
(§5) The capacity of the indicated substances to inhibit the binding to primer or to primed DNA template of a panel of recombinant HIV 1 subtype B RTs was studied according to “Protocol for RT binding inhibition (BIC) assay” (protocol (iii) above).

[6] = target: recombinant HIV-1 RT, ref RT (HIV type B, clone BH 10) (Human immunodeficiency virus type 1 group M subtype B, UniProt P03366); settings: read-out: Inhibition of binding to primer (BIC50), immobilised primer, binding 90 min at 33° C.
Description: as §4, §5

[7] = RT and inhibitor added directly to the assay mixture without preincubation
[8] = enzyme/inhibitor preincubated 30 minutes at 33° C., BrdUTP 0.35 μM, odT22 0.03 ng per well, 3 hours

Substance	IC50 [1, 7] [µM]	IC50 [1, 8] [µM]	IC50 [2, 7] [µM]	IC50 [2, 8] [µM]	IC50 [3, 7] [µM]	IC50 [3, 8] [µM]	Complex with Mut1 at high salt concentrations [4]	IC50 ([5]; immobilised primer, read-out: Inhibition of binding to primer (BIC50)) [µM]	IC50 ([5]; immobilised primer/template, read-out: Inhibition of binding to template/primer (BIC50)) [µM]	IC50 [6] [µM]
substance 199: 35-mer RNA molecule having the sequence set out in SEQ ID NO:5; similar to SEQ ID NO:4 with some naturally occurring nucleotide derivatives (GCUCAGNCGGNAGAGCANCAGACUUUUAANCUGAN; RNA, backbone, methylation of C and the base at N not given here; naturally occurring modified nucleosides at n positions)	0.0093	0.011	0.0074	0.01	0.0098	0.01				
substance 198: 15-mer RNA phosphorothioate with the base sequence of tRNALys3 anticodon stem and loop, SEQ ID NO:7 (rC*rA*rG*rA*rC*rU*rU*rU*rU*rA*rA*rU*rC*rU*rG) [reference compound]		0.34		0.45		1.1	dissociates from Mut1	0.4	1	0.1

From patent US20040053872A1, “New sequences” (priority 2000, published 2004)
